{
  "source": "paper PMC8581430",
  "about": "“Peptide ligands targeting FGF receptors promote recovery from dorsal root crush injury via AKT/mTOR signaling” (Theranostics, 2021)",
  "tested_on": "mTOR (phosphorylated) in DRG explants",
  "assay": "Western blot of phosphorylated mTOR in DRG explants",
  "type": "cell-based, rat",
  "conditions": "CH02 20 μM + inhibitor 2 μM, 4 h, n = 3",
  "description": "Figure 7 CH02-stimulated activation of AKT/mTOR signaling is required for growth potential augmentation of axons. (A) Immunoblot analysis showing phosphorylated mTOR expression in C5-T1 DRGs subjected to dorsal root injury followed by CH02 treatment (20 μM). DRG samples were collected 3 days post-treatment. (B) Quantification of p-mTOR expression levels in A. n = 3 independent experiments. Relative protein expression levels were quantified after normalization to mTOR. Values are means ± SEM. (C) Immunoblot showing phosphorylated mTOR expression in DRG explants pretreated with DMSO (control), CH02 (20 μM), CH02+AKTi (2 μM) or CH02+ U0126 (2 μM) for 4 h. (D) Quantification of the p-mTOR expression from C. n = 3 independent experiments. Relative protein expression levels were quantified after normalization to mTOR. […] The axon is shown in fluorescence (β3-tubulin) images. […] (F) Quantification of the longest axon length of each neuron from (E) (n = 62 for each condition; *Control vs. CH02, CH02+Torin1, Torin1; # CH02 vs. CH02+Torin1; **p < 0.01, ****p < 0.0001, #p < 0.05 by one-way ANOVA with Dunnett's test; ns, not significant; mean ± SD). […] (H) Quantification of axon growth in DRG explants from (G) using Neurite-J software (n = 4 for each condition; *control vs. CH02, CH02+Torin1, Torin1; *p < 0.05, **p < 0.01, ***p < 0.001, ****p < 0.0001 by two-way ANOVA with Dunnett's test; mean ± SEM). […]",
  "data": [
    {"smiles": "N#CC(=C(/N)Sc1ccccc1N)/C(C#N)=C(/N)Sc1ccccc1N", "note": "[U0126]", "values": [
      {"measurement": "effect of inhibitor on CH02-induced phosphorylated mTOR", "value": "had little effect"}
    ]}
  ]
}
